Reference: ChEMBL document CHEMBL3044779, “The action of herbicides on fatty acid biosynthesis and elongation in barley and cucumber” (Pest Manag Sci, 2010)
Active and inactive are the calls of the source. No cut-off for these calls is given here.

Key:
Hordeum vulgare [1] = experiment: Inhibition of fatty acid synthesis in Hordeum vulgare (barley) using [14C]malonate assessed as inhibition of [14C]-labeled 20C fatty acid production at 200 uM after 3 hr by liquid scintillation counting; format: functional, organism-based
Hordeum vulgare [2] = experiment: Inhibition of fatty acid synthesis in Hordeum vulgare (barley) using [14C]malonate assessed as inhibition of [14C]-labeled 18C fatty acid production at 200 uM after 3 hr by liquid scintillation counting; format: functional, organism-based
Cucumis sativus [3] = experiment: Inhibition of fatty acid synthesis in Cucumis sativus (cucumber) using [14C]malonate assessed as inhibition of [14C]-labeled 22C fatty acid production at 200 uM after 3 hr by liquid scintillation counting; format: functional, organism-based
Hordeum vulgare [4] = experiment: Inhibition of fatty acid synthesis in Hordeum vulgare (barley) using [14C]acetate assessed as [14C]-labeled 22C fatty acid level at 200 uM after 3 hr by liquid scintillation counting (reference value: 5.5 +/- 0.2%); format: functional; parameters: scale not given: the % may be the effect or the level left
Cucumis sativus [5] = experiment: Inhibition of fatty acid synthesis in Cucumis sativus (cucumber) using [14C]acetate assessed as [14C]-labeled 16C fatty acid level at 200 uM after 3 hr by liquid scintillation counting (reference value: 29.2 +/- 3.5%); format: functional; parameters: scale not given: the % may be the effect or the level left
Cucumis sativus [6] = experiment: Inhibition of fatty acid synthesis in Cucumis sativus (cucumber) using [14C]acetate assessed as [14C]-labeled 22C fatty acid level at 200 uM after 3 hr by liquid scintillation counting (reference value: 17.9 +/- 2.5%); format: functional; parameters: scale not given: the % may be the effect or the level left
Cucumis sativus [7] = experiment: (§1) Inhibition of fatty acid synthesis in Cucumis sativus (cucumber) assessed as inhibition of [14C]acetate incoporation in total fatty acids at 200 uM measured as total disintegration per g of fresh weight after 3 hr by liquid scintillation counting (reference value: 6.4 +/- 1.2 dpm x 10^6 g'1 fresh wt); format: functional
Hordeum vulgare [8] = experiment: Inhibition of fatty acid synthesis in Hordeum vulgare (barley) assessed as inhibition of [14C]acetate incoporation in total fatty acids at 200 uM measured as total disintegration per g of fresh weight after 3 hr by liquid scintillation counting (reference value: 5.7 +/- 0.5 dpm x 10^6 g'1 fresh wt); format: functional
Hordeum vulgare [9] = experiment: Inhibition of fatty acid synthesis in Hordeum vulgare (barley) using [14C]acetate assessed as [14C]-labeled 18C fatty acid level at 200 uM after 3 hr by liquid scintillation counting (reference value: 60.3 +/- 1.3%); format: functional; parameters: scale not given: the % may be the effect or the level left
Hordeum vulgare [10] = experiment: Inhibition of fatty acid synthesis in Hordeum vulgare (barley) assessed as inhibition of [14C]malonate incoporation in total fatty acids at 200 uM measured after 3 hr by liquid scintillation counting; format: functional, organism-based
Cucumis sativus [11] = experiment: Inhibition of fatty acid synthesis in Cucumis sativus (cucumber) using [14C]acetate assessed as [14C]-labeled 24C fatty acid level at 200 uM after 3 hr by liquid scintillation counting (reference value: 6.5 +/- 1%); format: functional; parameters: scale not given: the % may be the effect or the level left
Hordeum vulgare [12] = experiment: Inhibition of fatty acid synthesis in Hordeum vulgare (barley) using [14C]malonate assessed as inhibition of [14C]-labeled 22C fatty acid production at 200 uM after 3 hr by liquid scintillation counting; format: functional, organism-based
Cucumis sativus [13] = experiment: Inhibition of fatty acid synthesis in Cucumis sativus (cucumber) using [14C]acetate assessed as [14C]-labeled 18C fatty acid level at 200 uM after 3 hr by liquid scintillation counting (reference value: 41.2 +/- 1.1%); format: functional; parameters: scale not given: the % may be the effect or the level left
Hordeum vulgare [14] = experiment: Inhibition of fatty acid synthesis in Hordeum vulgare (barley) using [14C]malonate assessed as inhibition of [14C]-labeled 16C fatty acid production at 200 uM after 3 hr by liquid scintillation counting; format: functional, organism-based
Cucumis sativus [15] = experiment: Inhibition of fatty acid synthesis in Cucumis sativus (cucumber) using [14C]malonate assessed as inhibition of [14C]-labeled 24C fatty acid production at 200 uM after 3 hr by liquid scintillation counting; format: functional, organism-based
Hordeum vulgare [16] = experiment: Inhibition of fatty acid synthesis in Hordeum vulgare (barley) using [14C]acetate assessed as [14C]-labeled 20C fatty acid level at 200 uM after 3 hr by liquid scintillation counting (reference value: 4.7 +/- 1.6%); format: functional; parameters: scale not given: the % may be the effect or the level left
Hordeum vulgare [17] = experiment: Inhibition of fatty acid synthesis in Hordeum vulgare (barley) using [14C]acetate assessed as [14C]-labeled 16C fatty acid level at 200 uM after 3 hr by liquid scintillation counting (reference value: 29.5 +/- 1.3%); format: functional; parameters: scale not given: the % may be the effect or the level left
Cucumis sativus [18] = experiment: Inhibition of fatty acid synthesis in Cucumis sativus (cucumber) using [14C]malonate assessed as inhibition of [14C]-labeled 20C fatty acid production at 200 uM after 3 hr by liquid scintillation counting; format: functional, organism-based
Cucumis sativus [19] = experiment: Inhibition of fatty acid synthesis in Cucumis sativus (cucumber) using [14C]malonate assessed as inhibition of [14C]-labeled 16C fatty acid production at 200 uM after 3 hr by liquid scintillation counting; format: functional, organism-based
Cucumis sativus [20] = experiment: Inhibition of fatty acid synthesis in Cucumis sativus (cucumber) using [14C]malonate assessed as inhibition of [14C]-labeled 18C fatty acid production at 200 uM after 3 hr by liquid scintillation counting; format: functional, organism-based
Cucumis sativus [21] = experiment: Inhibition of fatty acid synthesis in Cucumis sativus (cucumber) using [14C]acetate assessed as [14C]-labeled 20C fatty acid level at 200 uM after 3 hr by liquid scintillation counting (reference value: 5.1 +/- 0.7%); format: functional; parameters: scale not given: the % may be the effect or the level left
Hordeum vulgare [22] = experiment: Inhibition of fatty acid synthesis in Hordeum vulgare (barley) using [14C]malonate assessed as inhibition of [14C]-labeled 24C fatty acid production at 200 uM after 3 hr by liquid scintillation counting; format: functional, organism-based
Cucumis sativus [23] = experiment: Inhibition of fatty acid synthesis in Cucumis sativus (cucumber) assessed as inhibition of [14C]malonate incoporation in total fatty acids at 200 uM measured after 3 hr by liquid scintillation counting; format: functional, organism-based
Hordeum vulgare [24] = experiment: Inhibition of fatty acid synthesis in Hordeum vulgare (barley) using [14C]malonate assessed as inhibition of [14C]-labeled 16C fatty acid production at 300 uM after 3 hr by liquid scintillation counting; format: functional, organism-based
Hordeum vulgare [25] = experiment: Inhibition of fatty acid synthesis in Hordeum vulgare (barley) assessed as inhibition of [14C]malonate incoporation in total fatty acids at 300 uM measured after 3 hr by liquid scintillation counting; format: functional, organism-based
Cucumis sativus [26] = experiment: Inhibition of fatty acid synthesis in Cucumis sativus (cucumber) using [14C]acetate assessed as [14C]-labeled 24C fatty acid level at 300 uM after 3 hr by liquid scintillation counting (reference value: 6.5 +/- 1%); format: functional; parameters: scale not given: the % may be the effect or the level left
Hordeum vulgare [27] = experiment: Inhibition of fatty acid synthesis in Hordeum vulgare (barley) assessed as inhibition of [14C]acetate incoporation in total fatty acids at 300 uM measured as total disintegration per g of fresh weight after 3 hr by liquid scintillation counting (reference value: 5.7 +/- 0.5 dpm x 10^6 g'1 fresh wt); format: functional
Cucumis sativus [28] = experiment: Inhibition of fatty acid synthesis in Cucumis sativus (cucumber) using [14C]acetate assessed as [14C]-labeled 22C fatty acid level at 300 uM after 3 hr by liquid scintillation counting (reference value: 17.9 +/- 2.5%); format: functional; parameters: scale not given: the % may be the effect or the level left
Hordeum vulgare [29] = experiment: Inhibition of fatty acid synthesis in Hordeum vulgare (barley) using [14C]acetate assessed as [14C]-labeled 18C fatty acid level at 300 uM after 3 hr by liquid scintillation counting (reference value: 60.3 +/- 1.3%); format: functional; parameters: scale not given: the % may be the effect or the level left
Hordeum vulgare [30] = experiment: Inhibition of fatty acid synthesis in Hordeum vulgare (barley) using [14C]malonate assessed as inhibition of [14C]-labeled 22C fatty acid production at 300 uM after 3 hr by liquid scintillation counting; format: functional, organism-based
Hordeum vulgare [31] = experiment: Inhibition of fatty acid synthesis in Hordeum vulgare (barley) using [14C]malonate assessed as inhibition of [14C]-labeled 20C fatty acid production at 300 uM after 3 hr by liquid scintillation counting; format: functional, organism-based
Hordeum vulgare [32] = experiment: Inhibition of fatty acid synthesis in Hordeum vulgare (barley) using [14C]acetate assessed as [14C]-labeled 20C fatty acid level at 300 uM after 3 hr by liquid scintillation counting (reference value: 4.7 +/- 1.6%); format: functional; parameters: scale not given: the % may be the effect or the level left
Cucumis sativus [33] = experiment: Inhibition of fatty acid synthesis in Cucumis sativus (cucumber) using [14C]malonate assessed as inhibition of [14C]-labeled 18C fatty acid production at 300 uM after 3 hr by liquid scintillation counting; format: functional, organism-based
Cucumis sativus [34] = experiment: Inhibition of fatty acid synthesis in Cucumis sativus (cucumber) assessed as inhibition of [14C]malonate incoporation in total fatty acids at 300 uM measured after 3 hr by liquid scintillation counting; format: functional, organism-based
Cucumis sativus [35] = experiment: Inhibition of fatty acid synthesis in Cucumis sativus (cucumber) using [14C]malonate assessed as inhibition of [14C]-labeled 16C fatty acid production at 300 uM after 3 hr by liquid scintillation counting; format: functional, organism-based
Hordeum vulgare [36] = experiment: Inhibition of fatty acid synthesis in Hordeum vulgare (barley) using [14C]malonate assessed as inhibition of [14C]-labeled 18C fatty acid production at 300 uM after 3 hr by liquid scintillation counting; format: functional, organism-based
Cucumis sativus [37] = experiment: Inhibition of fatty acid synthesis in Cucumis sativus (cucumber) using [14C]malonate assessed as inhibition of [14C]-labeled 20C fatty acid production at 300 uM after 3 hr by liquid scintillation counting; format: functional, organism-based
Hordeum vulgare [38] = experiment: Inhibition of fatty acid synthesis in Hordeum vulgare (barley) using [14C]acetate assessed as [14C]-labeled 22C fatty acid level at 300 uM after 3 hr by liquid scintillation counting (reference value: 5.5 +/- 0.2%); format: functional; parameters: scale not given: the % may be the effect or the level left
Cucumis sativus [39] = experiment: Inhibition of fatty acid synthesis in Cucumis sativus (cucumber) using [14C]acetate assessed as [14C]-labeled 20C fatty acid level at 300 uM after 3 hr by liquid scintillation counting (reference value: 5.1 +/- 0.7%); format: functional; parameters: scale not given: the % may be the effect or the level left
Cucumis sativus [40] = experiment: as §1, with “300” for “200”; format: functional
Cucumis sativus [41] = experiment: Inhibition of fatty acid synthesis in Cucumis sativus (cucumber) using [14C]malonate assessed as inhibition of [14C]-labeled 24C fatty acid production at 300 uM after 3 hr by liquid scintillation counting; format: functional, organism-based
Hordeum vulgare [42] = experiment: Inhibition of fatty acid synthesis in Hordeum vulgare (barley) using [14C]malonate assessed as inhibition of [14C]-labeled 24C fatty acid production at 300 uM after 3 hr by liquid scintillation counting; format: functional, organism-based
Cucumis sativus [43] = experiment: Inhibition of fatty acid synthesis in Cucumis sativus (cucumber) using [14C]malonate assessed as inhibition of [14C]-labeled 22C fatty acid production at 300 uM after 3 hr by liquid scintillation counting; format: functional, organism-based
Cucumis sativus [44] = experiment: Inhibition of fatty acid synthesis in Cucumis sativus (cucumber) using [14C]acetate assessed as [14C]-labeled 16C fatty acid level at 300 uM after 3 hr by liquid scintillation counting (reference value: 29.2 +/- 3.5%); format: functional; parameters: scale not given: the % may be the effect or the level left
Hordeum vulgare [45] = experiment: Inhibition of fatty acid synthesis in Hordeum vulgare (barley) using [14C]acetate assessed as [14C]-labeled 16C fatty acid level at 300 uM after 3 hr by liquid scintillation counting (reference value: 29.5 +/- 1.3%); format: functional; parameters: scale not given: the % may be the effect or the level left
Cucumis sativus [46] = experiment: Inhibition of fatty acid synthesis in Cucumis sativus (cucumber) using [14C]acetate assessed as [14C]-labeled 18C fatty acid level at 300 uM after 3 hr by liquid scintillation counting (reference value: 41.2 +/- 1.1%); format: functional; parameters: scale not given: the % may be the effect or the level left

`Cc1ccccc1CO[C@H]1C[C@]2(C(C)C)CC[C@@]1(C)O2` (relative stereo) [REL-CINMETHYLIN] was tested, and the inhibition (Hordeum vulgare [1]) was “inactive”, the inhibition (Hordeum vulgare [2]) was “inactive” and the inhibition (Cucumis sativus [3]) was “inactive”. The Activity (Hordeum vulgare [4]) was 5.8%, the Activity (Cucumis sativus [5]) was 28.9% and the Activity (Cucumis sativus [6]) was 13.4%. The Activity (Cucumis sativus [7]) was 8.4 ×10⁶ dpm, the Activity (Hordeum vulgare [8]) was 5.1 ×10⁶ dpm and the Activity (Hordeum vulgare [9]) was 67.7%. For the same compound, the inhibition (Hordeum vulgare [10]) was “inactive”, the Activity (Cucumis sativus [11]) was 4.2% and the inhibition (Hordeum vulgare [12]) was “inactive”. For the same compound, the Activity (Cucumis sativus [13]) was 48.6%, the inhibition (Hordeum vulgare [14]) was “inactive” and the inhibition (Cucumis sativus [15]) was “inactive”. The Activity (Hordeum vulgare [16]) was 5.7%, the Activity (Hordeum vulgare [17]) was 20.9% and the inhibition (Cucumis sativus [18]) was “inactive”. For the same compound, the inhibition (Cucumis sativus [19]) was “inactive”, the inhibition (Cucumis sativus [20]) was “inactive” and the Activity (Cucumis sativus [21]) was 4.8%. For the same compound, the inhibition (Hordeum vulgare [22]) was “inactive” and the inhibition (Cucumis sativus [23]) was “inactive”.
For `CN(C)C(=O)C(c1ccccc1)c1ccccc1` [DIPHENAMIDE], the inhibition (Hordeum vulgare [24]) was “inactive”, the inhibition (Hordeum vulgare [25]) was “inactive” and the Activity (Cucumis sativus [26]) was 5.1%. The Activity (Hordeum vulgare [27]) was 4 ×10⁶ dpm, the Activity (Cucumis sativus [28]) was 13.9% and the Activity (Hordeum vulgare [29]) was 66.1%. The inhibition (Hordeum vulgare [30]) was “inactive”, the inhibition (Hordeum vulgare [31]) was “inactive” and the Activity (Hordeum vulgare [32]) was 7.9%. For the same compound, the inhibition (Cucumis sativus [33]) was “inactive”, the inhibition (Cucumis sativus [34]) was “inactive” and the inhibition (Cucumis sativus [35]) was “inactive”. The inhibition (Hordeum vulgare [36]) was “inactive”, the inhibition (Cucumis sativus [37]) was “inactive” and the Activity (Hordeum vulgare [38]) was 7.6%. For the same compound, the Activity (Cucumis sativus [39]) was 6.1%, the Activity (Cucumis sativus [40]) was 6.9 ×10⁶ dpm and the inhibition (Cucumis sativus [41]) was “inactive”. For the same compound, the inhibition (Hordeum vulgare [42]) was “inactive”, the inhibition (Cucumis sativus [43]) was “inactive” and the Activity (Cucumis sativus [44]) was 26.8%. For the same compound, the Activity (Hordeum vulgare [45]) was 18.4% and the Activity (Cucumis sativus [46]) was 48.1%.
